Literature values as cited in PubChem BioAssay AID1259409 (Chemical Carcinogenesis Research Information System (CCRIS), 2018).

Tested on: rodent chemically induced tumor inhibition, incidence and multiplicity
Experiment: CCRIS tumor inhibitor studies
Conditions: Promoter: NONE USED

**Q.** What does the source list for `COc1cc(/C=C/C(=O)OCCc2ccccc2)ccc1O`?
**A.** tumour outcome (control, treated, inhibition, significance) (Carcinogen: AZOXYMETHANE, 25843-45-2, Dose [Inhibitor]: 0, 750 PPM IN DIET FOR 56 WK BEGINNING 2 WK PRIOR TO CARCINOGEN TREATMENT (STUDY DURATION: 56 WK), Route [Inhibitor]: ORAL, Species: RAT, Strain/Sex: F344/MALE, Target Tissue: Type of Lesion: COLON: ADENOCARCINOMA, Dose [Carcinogen]: 15 MG/KG BW 1/WK FOR 2 WK): 81%, 43%, 47%, p<0.002; tumour outcome (control, treated, inhibition, significance) (Carcinogen: AZOXYMETHANE, 25843-45-2, Dose [Inhibitor]: 0, 750 PPM IN DIET FOR 56 WK BEGINNING 2 WK PRIOR TO CARCINOGEN TREATMENT (STUDY DURATION: 56 WK), Route [Inhibitor]: ORAL, Species: RAT, Strain/Sex: F344/MALE, Target Tissue: Type of Lesion: EAR DUCT: TUMOR, Dose [Carcinogen]: 15 MG/KG BW 1/WK FOR 2 WK): 25%, 0%, 100%, p<0.02; tumour outcome (control, treated, inhibition, significance) (Carcinogen: AZOXYMETHANE, 25843-45-2, Dose [Inhibitor]: 0, 750 PPM IN DIET FOR 56 WK BEGINNING 2 WK PRIOR TO CARCINOGEN TREATMENT (STUDY DURATION: 56 WK), Route [Inhibitor]: ORAL, Species: RAT, Strain/Sex: F344/MALE, Target Tissue: Type of Lesion: SMALL INTESTINE: INVASIVE ADENOCARCINOMA, Dose [Carcinogen]: 15 MG/KG BW 1/WK FOR 2 WK): 16%, 10%, 38%, not significant

**Q.** What does the source list for `CCCCCCCCCCCCCCCC`?
**A.** tumour outcome (control, treated, inhibition, significance) (Carcinogen: BENZO[A]PYRENE, 50-32-8, Dose [Inhibitor]: 25 MG IN 0.1 ML ACETONE 3/WK ADMINISTERED SIMULTANEOUSLY WITH CARCINOGEN FOR DURATION OF STUDY (STUDY DURATION: 440 D), Route [Inhibitor]: DERMAL, Species: MOUSE, Strain/Sex: ICR/FEMALE, Target Tissue: Type of Lesion: SKIN: PAPILLOMA, Dose [Carcinogen]: 5 UG IN 0.1 ML ACETONE 3/WK FOR DURATION OF STUDY): 16/50 (32%), 5/50 (10%), 69%, not calculated; tumour outcome (control, treated, inhibition, significance) (Carcinogen: BENZO[A]PYRENE, 50-32-8, Dose [Inhibitor]: 25 MG IN 0.1 ML ACETONE 3/WK ADMINISTERED SIMULTANEOUSLY WITH CARCINOGEN FOR DURATION OF STUDY (STUDY DURATION: 440 D), Route [Inhibitor]: DERMAL, Species: MOUSE, Strain/Sex: ICR/FEMALE, Target Tissue: Type of Lesion: SKIN: SQUAMOUS CARCINOMA, Dose [Carcinogen]: 5 UG IN 0.1 ML ACETONE 3/WK FOR DURATION OF STUDY): 12/50 (24%), 2/50 (4%), 83%, not calculated

**Q.** With `COC(=O)[C@H](CCSC)NC(C)=O` as the compound, how does the “tumour outcome (control, treated, inhibition, significance)” value (Carcinogen: 7,12-DIMETHYLBENZ[A]ANTHRACENE, 57-97-6, Dose [Inhibitor]: 0.06 MMOL/G DIET DAILY FOR 17 WK STARTING 1 WK PRIOR TO CARCINOGEN TREATMENT AND CONTINUING THROUGH THE END OF THE STUDY, Route [Inhibitor]: ORAL, Species: RAT, Strain/Sex: SPRAGUE-DAWLEY/FEMALE, Target Tissue: Type of Lesion: MAMMARY GLAND: TUMOR, Dose [Carcinogen]: 12 MG IN 1 ML OLIVE OIL ONCE) read?
**A.** 59%, 75%, -27%, not calculated

**Q.** Which “tumour outcome (control, treated, inhibition, significance)” value (Carcinogen: N-METHYL-N'-NITRO-N-NITROSOGUANIDINE, 70-25-7, Dose [Inhibitor]: 0, 0.5 MG/KG IN OLIVE OIL SUSPENSION 1/D BEGINNING 1 WK POST LAST CARCINOGEN DOSE AND CONTINUING FOR DURATION OF STUDY (, Species: RAT, Strain/Sex: WISTAR/MALE, Target Tissue: Type of Lesion: GLANDULAR STOMACH: ADENOCARCINOMA, Dose [Carcinogen]: 50 UG/ML IN DRINKING WATER FOR 25 WK) does the source give for `CN1[C@@H]2CC[C@H]1CC(OC(=O)C(CO)c1ccccc1)C2` (some centres not stated) here?
**A.** 15/18 (83%), 15/19 (79%), 5%, not calculated

**Q.** Which “tumour outcome (control, treated, inhibition, significance)” value (Carcinogen: 4-(METHYLNITROSAMINO)-1-(3-PYRIDYL)-1-BUTANONE, 64091-91-4, Dose [Inhibitor]: 0, 1 UMOL IN 0.1 ML CORN OIL ONCE 2 HR PRIOR TO CARCINOGEN DOSE (STUDY DURATION: 16 WK), Route [Inhibitor]: GAVAGE, Species: MOUSE, Strain/Sex: STRAIN-A/FEMALE, Target Tissue: Type of Lesion: LUNG: ADENOMA, Dose [Carcinogen]: 10 UMOL IN 0.1 ML SALINE ONCE) does the source give for `CC(O)CCC(=O)c1ccoc1` (configuration not stated) here?
**A.** 100%, 100%, 0%, not significant

**Q.** What does the source list for `CSC[C@H](N)C(=O)O`?
**A.** tumour outcome (control, treated, inhibition, significance) (Carcinogen: 7,12-DIMETHYLBENZ[A]ANTHRACENE, 57-97-6, Dose [Inhibitor]: 0, 0.005 MOL/KG DIET BEGINNING 2 WK PRIOR TO CARCINOGEN AND CONTINUED FOR STUDY DURATION (STUDY DURATION: 25 WK), Route [Inhibitor]: ORAL, Species: RAT, Strain/Sex: CD-1/FEMALE, Target Tissue: Type of Lesion: MAMMARY GLAND: ADENOCARCINOMA, Dose [Carcinogen]: 10 MG ONCE): 22/25 (88%), 19/25 (76%), 14%, not significant; tumour outcome (control, treated, inhibition, significance) (Carcinogen: 7,12-DIMETHYLBENZ[A]ANTHRACENE, 57-97-6, Dose [Inhibitor]: 0, 0.015 MOL/KG DIET BEGINNING 1 WK POST CARCINOGEN AND CONTINUED FOR STUDY DURATION (STUDY DURATION: 25 WK), Route [Inhibitor]: ORAL, Species: RAT, Strain/Sex: CD-1/FEMALE, Target Tissue: Type of Lesion: MAMMARY GLAND: ADENOCARCINOMA, Dose [Carcinogen]: 10 MG ONCE): 23/30 (77%), 14/30 (47%), 39%, p<0.05; tumour outcome (control, treated, inhibition, significance) (Carcinogen: 7,12-DIMETHYLBENZ[A]ANTHRACENE, 57-97-6, Dose [Inhibitor]: 0, 0.015 MOL/KG DIET BEGINNING 2 WK PRIOR TO CARCINOGEN AND CONTINUED 1 WK POST CARCINOGEN (STUDY DURATION: 25 WK), Route [Inhibitor]: ORAL, Species: RAT, Strain/Sex: CD-1/FEMALE, Target Tissue: Type of Lesion: MAMMARY GLAND: ADENOCARCINOMA, Dose [Carcinogen]: 10 MG ONCE): 23/30 (77%), 21/30 (70%), 9%, not significant; tumour outcome (control, treated, inhibition, significance) (Carcinogen: 7,12-DIMETHYLBENZ[A]ANTHRACENE, 57-97-6, Dose [Inhibitor]: 0, 0.015 MOL/KG DIET BEGINNING 2 WK PRIOR TO CARCINOGEN AND CONTINUED FOR STUDY DURATION (STUDY DURATION: 25 WK), Route [Inhibitor]: ORAL, Species: RAT, Strain/Sex: CD-1/FEMALE, Target Tissue: Type of Lesion: MAMMARY GLAND: ADENOCARCINOMA, Dose [Carcinogen]: 10 MG ONCE): 22/25 (88%), 13/25 (52%), 41%, p<0.05
